Results as given in PubChem BioAssay AID1745844 (Carcinogenic Potency Database (CPDB), 2022).
Where “and” joins values, the source holds several entries; their conditions need not be identical. Identical values can stand only once. Calls of active or inactive are those of the source. How the calls were made is not given here.

Test system: rodent lifetime carcinogenesis bioassay, tumor incidence TD50
Assay: carcinogenic potency in animals, long-term in vivo studies, CPDB compilation (AID 1745844)

c1ccc(NNc2ccccc2)cc1
TD50 (mouse, strain B6C3F1, females, in feed, site: any site (literature study), lesion: several types, types named in the paper, dosed 78 weeks, study length 95 weeks): 31.5 mg/kg/day
TD50 (mouse, strain B6C3F1, females, in feed, site: liver, lesion: hepatocellular adenoma + hepatocellular carcinoma + neoplastic nodule, dosed 78 weeks, study length 95 weeks): 26 mg/kg/day
TD50 (mouse, strain B6C3F1, females, in feed, site: liver, lesion: hepatocellular adenoma + hepatocellular carcinoma, dosed 78 weeks, study length 95 weeks): 26 mg/kg/day
TD50 (mouse, strain B6C3F1, females, in feed, site: liver, lesion: hepatocellular carcinoma, dosed 78 weeks, study length 95 weeks): 29.7 mg/kg/day
TD50 (mouse, strain B6C3F1, females, in feed, site: lung, lesion: alveolar/bronchiolar adenoma + alveolar/bronchiolar carcinoma, dosed 78 weeks, study length 95 weeks): 8760 mg/kg/day
carcinogen call (mouse, strain B6C3F1, males, in feed, site: any site (literature study), lesion: several types, types named in the paper, dosed 78 weeks, study length 95 weeks): negative (inactive)
TD50 (mouse, strain B6C3F1, males, in feed, site: liver, lesion: hepatocellular adenoma + hepatocellular carcinoma + neoplastic nodule, dosed 78 weeks, study length 95 weeks): 1090 mg/kg/day
TD50 (rat, strain Fischer 344, females, in feed, site: any site (literature study), lesion: several types, types named in the paper, dosed 78 weeks, study length 106 weeks): 4.5 mg/kg/day
TD50 (rat, strain Fischer 344, females, in feed, site: liver + mammary gland, lesion: neoplastic nodule + adenocarcinoma, NOS, dosed 78 weeks, study length 106 weeks): 6.74 mg/kg/day
TD50 (rat, strain Fischer 344, females, in feed, site: liver, lesion: hepatocellular adenoma + hepatocellular carcinoma + neoplastic nodule, dosed 78 weeks, study length 106 weeks): 18.1 mg/kg/day
TD50 (rat, strain Fischer 344, females, in feed, site: liver, lesion: neoplastic nodule, dosed 78 weeks, study length 106 weeks): 18.1 mg/kg/day
TD50 (rat, strain Fischer 344, females, in feed, site: mammary gland, lesion: adenocarcinoma, NOS, dosed 78 weeks, study length 106 weeks): 11.4 mg/kg/day
TD50 (rat, strain Fischer 344, males, in feed, site: Zymbal's gland, lesion: squamous-cell carcinoma, dosed 78 weeks, study length 106 weeks): 38.5 mg/kg/day
TD50 (rat, strain Fischer 344, males, in feed, site: adrenal gland, lesion: pheochromocytoma, dosed 78 weeks, study length 106 weeks): 16.2 mg/kg/day
TD50 (rat, strain Fischer 344, males, in feed, site: any site (literature study), lesion: several types, types named in the paper, dosed 78 weeks, study length 106 weeks): 6.85 mg/kg/day
TD50 (rat, strain Fischer 344, males, in feed, site: ear canal + Zymbal's gland, lesion: squamous-cell carcinoma + squamous-cell papilloma, dosed 78 weeks, study length 106 weeks): 35.8 mg/kg/day
TD50 (rat, strain Fischer 344, males, in feed, site: liver + Zymbal's gland, lesion: hepatocellular carcinoma + neoplastic nodule + squamous-cell carcinoma, dosed 78 weeks, study length 106 weeks): 3.55 mg/kg/day
TD50 (rat, strain Fischer 344, males, in feed, site: liver, lesion: hepatocellular adenoma + hepatocellular carcinoma + neoplastic nodule, dosed 78 weeks, study length 106 weeks): 3.7 mg/kg/day
TD50 (rat, strain Fischer 344, males, in feed, site: liver, lesion: hepatocellular carcinoma + neoplastic nodule, dosed 78 weeks, study length 106 weeks): 3.7 mg/kg/day
TD50 (rat, strain Fischer 344, males, in feed, site: liver, lesion: hepatocellular carcinoma, dosed 78 weeks, study length 106 weeks): 4.67 mg/kg/day

Nc1nc(N)nc(N)n1
carcinogen call (mouse, strain B6C3F1, females, in feed, site: any site (literature study), lesion: several types, types named in the paper, dosed 103 weeks, study length 105 weeks): negative (inactive)
TD50 (mouse, strain B6C3F1, males, in feed, site: any site (literature study), lesion: several types, types named in the paper, dosed 103 weeks, study length 105 weeks): 3200 mg/kg/day (inactive)
TD50 (mouse, strain B6C3F1, males, in feed, site: liver, lesion: hepatocellular adenoma + hepatocellular carcinoma + neoplastic nodule, dosed 103 weeks, study length 105 weeks): 4370 mg/kg/day
TD50 (rat, strain Fischer 344, females, in feed, site: any site (literature study), lesion: several types, types named in the paper, dosed 103 weeks, study length 105 weeks): 3930 mg/kg/day
TD50 (rat, strain Fischer 344, females, in feed, site: liver, lesion: hepatocellular adenoma + hepatocellular carcinoma + neoplastic nodule, dosed 103 weeks, study length 105 weeks): 4410 mg/kg/day
TD50 (rat, strain Fischer 344, females, in feed, site: thyroid gland, lesion: c-cell adenoma + c-cell carcinoma, dosed 103 weeks, study length 105 weeks): 2470 mg/kg/day (inactive)
TD50 (rat, strain Fischer 344, females, in feed, site: thyroid gland, lesion: c-cell carcinoma, dosed 103 weeks, study length 105 weeks): 4160 mg/kg/day
TD50 (rat, strain Fischer 344, males, in feed, site: any site (literature study), lesion: several types, types named in the paper, dosed 103 weeks, study length 105 weeks): 149 mg/kg/day
TD50 (rat, strain Fischer 344, males, in feed, site: urinary bladder, lesion: transitional-cell carcinoma + transitional-cell papilloma, dosed 103 weeks, study length 105 weeks): 679 mg/kg/day
TD50 (rat, strain Fischer 344, males, in feed, site: urinary bladder, lesion: transitional-cell carcinoma, dosed 103 weeks, study length 105 weeks): 735 mg/kg/day

C=CN1CCCC1=O
TD50 (rat, strain Charles River CD (Sprague-Dawley), females, inhaled, site: any site (literature study), lesion: malignant tumor, dosed 104 weeks, study length 104 weeks): 6.12 mg/kg/day
TD50 (rat, strain Charles River CD (Sprague-Dawley), females, inhaled, site: larynx, lesion: squamous-cell carcinoma, dosed 104 weeks, study length 104 weeks): 120 mg/kg/day
TD50 (rat, strain Charles River CD (Sprague-Dawley), females, inhaled, site: liver, lesion: hepatocellular carcinoma, dosed 104 weeks, study length 104 weeks): 12.3 mg/kg/day
TD50 (rat, strain Charles River CD (Sprague-Dawley), females, inhaled, site: nasal cavity, olfactory epithelium, lesion: adenocarcinoma, dosed 104 weeks, study length 104 weeks): 120 mg/kg/day
TD50 (rat, strain Charles River CD (Sprague-Dawley), females, inhaled, site: nasal cavity, respiratory epithelium, lesion: adenoma, dosed 52 weeks, study length 52 weeks): 19.8 mg/kg/day
TD50 (rat, strain Charles River CD (Sprague-Dawley), females, inhaled, site: nasal cavity, respiratory epithelium, lesion: adenoma, dosed 104 weeks, study length 104 weeks): 20.4 mg/kg/day
TD50 (rat, strain Charles River CD (Sprague-Dawley), males, inhaled, site: any site (literature study), lesion: malignant tumor, dosed 104 weeks, study length 104 weeks): 5 mg/kg/day
TD50 (rat, strain Charles River CD (Sprague-Dawley), males, inhaled, site: any site (literature study), lesion: several types, types named in the paper, dosed 104 weeks, study length 104 weeks): 1.99 mg/kg/day
TD50 (rat, strain Charles River CD (Sprague-Dawley), males, inhaled, site: larynx, lesion: squamous-cell carcinoma, dosed 104 weeks, study length 104 weeks): 84 mg/kg/day
TD50 (rat, strain Charles River CD (Sprague-Dawley), males, inhaled, site: liver, lesion: hepatocellular carcinoma, dosed 104 weeks, study length 104 weeks): 12 mg/kg/day
TD50 (rat, strain Charles River CD (Sprague-Dawley), males, inhaled, site: nasal cavity, olfactory epithelium, lesion: adenocarcinoma, dosed 104 weeks, study length 104 weeks): 32.9 mg/kg/day
TD50 (rat, strain Charles River CD (Sprague-Dawley), males, inhaled, site: nasal cavity, respiratory epithelium, lesion: adenoma, dosed 52 weeks, study length 52 weeks): 8.56 mg/kg/day
TD50 (rat, strain Charles River CD (Sprague-Dawley), males, inhaled, site: nasal cavity, respiratory epithelium, lesion: adenoma, dosed 104 weeks, study length 104 weeks): 11.7 mg/kg/day

CC(O)COC(C)(C)C (stereo unspecified)
TD50 (mouse, strain B6C3F1, females, inhaled, site: any site (literature study), lesion: several types, types named in the paper, dosed 104 weeks, study length 104 weeks): 8120 mg/kg/day
TD50 (mouse, strain B6C3F1, females, inhaled, site: liver, lesion: hepatocellular adenoma + hepatoblastoma + hepatocellular carcinoma, dosed 104 weeks, study length 104 weeks): 1780 mg/kg/day
TD50 (mouse, strain B6C3F1, females, inhaled, site: liver, lesion: hepatocellular adenoma + hepatocellular carcinoma, dosed 104 weeks, study length 104 weeks): 1780 mg/kg/day
TD50 (mouse, strain B6C3F1, females, inhaled, site: liver, lesion: hepatocellular adenoma, dosed 104 weeks, study length 104 weeks): 1780 mg/kg/day
TD50 (mouse, strain B6C3F1, males, inhaled, site: any site (literature study), lesion: several types, types named in the paper, dosed 104 weeks, study length 104 weeks): 7930 mg/kg/day
TD50 (mouse, strain B6C3F1, males, inhaled, site: liver, lesion: hepatoblastoma, dosed 104 weeks, study length 104 weeks): 9320 mg/kg/day
TD50 (mouse, strain B6C3F1, males, inhaled, site: liver, lesion: hepatocellular adenoma + hepatoblastoma + hepatocellular carcinoma, dosed 104 weeks, study length 104 weeks): 1980 mg/kg/day
TD50 (mouse, strain B6C3F1, males, inhaled, site: liver, lesion: hepatocellular adenoma + hepatocellular carcinoma, dosed 104 weeks, study length 104 weeks): 1980 mg/kg/day
TD50 (mouse, strain B6C3F1, males, inhaled, site: liver, lesion: hepatocellular adenoma, dosed 104 weeks, study length 104 weeks): 1970 mg/kg/day
carcinogen call (rat, strain Fischer 344, females, inhaled, site: any site (literature study), lesion: several types, types named in the paper, dosed 104 weeks, study length 104 weeks): negative (inactive)
TD50 (rat, strain Fischer 344, females, inhaled, site: liver, lesion: hepatocellular adenoma + hepatoblastoma + hepatocellular carcinoma, dosed 104 weeks, study length 104 weeks): 10500 mg/kg/day
TD50 (rat, strain Fischer 344, males, inhaled, site: any site (literature study), lesion: several types, types named in the paper, dosed 104 weeks, study length 104 weeks): 683 mg/kg/day
TD50 (rat, strain Fischer 344, males, inhaled, site: kidney, lesion: tubule adenoma + tubule carcinoma, dosed 104 weeks, study length 104 weeks): 2280 mg/kg/day and 2650 mg/kg/day
TD50 (rat, strain Fischer 344, males, inhaled, site: kidney, lesion: tubule adenoma, dosed 104 weeks, study length 104 weeks): 4480 mg/kg/day and 3800 mg/kg/day
TD50 (rat, strain Fischer 344, males, inhaled, site: liver, lesion: hepatocellular adenoma + hepatoblastoma + hepatocellular carcinoma, dosed 104 weeks, study length 104 weeks): 1450 mg/kg/day
TD50 (rat, strain Fischer 344, males, inhaled, site: liver, lesion: hepatocellular adenoma, dosed 104 weeks, study length 104 weeks): 1450 mg/kg/day
TD50 (rat, strain Fischer 344, males, inhaled, site: skin, lesion: basal-cell adenoma + basal-cell carcinoma, dosed 104 weeks, study length 104 weeks): 1510 mg/kg/day
TD50 (rat, strain Fischer 344, males, inhaled, site: skin, lesion: basal-cell adenoma, dosed 104 weeks, study length 104 weeks): 2070 mg/kg/day

Cc1ccc(N=Nc2c(O)ccc3ccccc23)c([N+](=O)[O-])c1
TD50 (mouse, strain B6C3F1, females, in feed, site: any site (literature study), lesion: several types, types named in the paper, dosed 103 weeks, study length 104 weeks): 13800 mg/kg/day
TD50 (mouse, strain B6C3F1, females, in feed, site: liver, lesion: hepatocellular adenoma + hepatocellular carcinoma + neoplastic nodule, dosed 103 weeks, study length 104 weeks): 204000 mg/kg/day
TD50 (mouse, strain B6C3F1, females, in feed, site: lung, lesion: alveolar/bronchiolar adenoma + alveolar/bronchiolar carcinoma, dosed 103 weeks, study length 104 weeks): 252000 mg/kg/day
TD50 (mouse, strain B6C3F1, females, in feed, site: lymph node, lesion: axillary histiocytic sarcoma + deep cervical, histiocytic sarcoma + iliac histiocytic sarcoma + inguinal histiocytic sarcoma + r, dosed 103 weeks, study length 104 weeks): 104000 mg/kg/day (inactive)
TD50 (mouse, strain B6C3F1, males, in feed, site: all sites, lesion: malignant lymphoma, histiocytic type + malignant lymphoma, mixed type, dosed 103 weeks, study length 104 weeks): 22700 mg/kg/day
TD50 (mouse, strain B6C3F1, males, in feed, site: any site (literature study), lesion: several types, types named in the paper, dosed 103 weeks, study length 104 weeks): 9420 mg/kg/day
TD50 (mouse, strain B6C3F1, males, in feed, site: kidney cortex + thyroid gland, lesion: adenoma + follicular-cell adenoma, dosed 103 weeks, study length 104 weeks): 19500 mg/kg/day
TD50 (mouse, strain B6C3F1, males, in feed, site: kidney cortex, lesion: adenoma, dosed 103 weeks, study length 104 weeks): 35500 mg/kg/day
TD50 (mouse, strain B6C3F1, males, in feed, site: liver, lesion: hepatocellular adenoma + hepatocellular carcinoma + neoplastic nodule, dosed 103 weeks, study length 104 weeks): 17900 mg/kg/day
TD50 (mouse, strain B6C3F1, males, in feed, site: lung, lesion: alveolar/bronchiolar adenoma + alveolar/bronchiolar carcinoma, dosed 103 weeks, study length 104 weeks): 36900 mg/kg/day
TD50 (mouse, strain B6C3F1, males, in feed, site: thyroid gland, lesion: follicular-cell adenoma, dosed 103 weeks, study length 104 weeks): 38300 mg/kg/day
TD50 (rat, strain Fischer 344, females, in feed, site: liver, lesion: hepatocellular adenoma + hepatocellular carcinoma + neoplastic nodule, dosed 103 weeks, study length 104 weeks): 5240 mg/kg/day
TD50 (rat, strain Fischer 344, females, in feed, site: liver, lesion: hepatocellular adenoma, dosed 103 weeks, study length 104 weeks): 5240 mg/kg/day
TD50 (rat, strain Fischer 344, males, in feed, site: Zymbal's gland, lesion: carcinoma, dosed 103 weeks, study length 104 weeks): 9010 mg/kg/day
TD50 (rat, strain Fischer 344, males, in feed, site: adrenal medulla, lesion: pheochromocytoma, benign, dosed 103 weeks, study length 104 weeks): 674 mg/kg/day
TD50 (rat, strain Fischer 344, males, in feed, site: adrenal medulla, lesion: pheochromocytoma, malignant + pheochromocytoma, benign, dosed 103 weeks, study length 104 weeks): 661 mg/kg/day
TD50 (rat, strain Fischer 344, males, in feed, site: any site (literature study), lesion: several types, types named in the paper, dosed 103 weeks, study length 104 weeks): 906 mg/kg/day
TD50 (rat, strain Fischer 344, males, in feed, site: liver, lesion: hepatocellular adenoma + hepatocellular carcinoma + neoplastic nodule, dosed 103 weeks, study length 104 weeks): 5170 mg/kg/day
TD50 (rat, strain Fischer 344, males, in feed, site: skin, lesion: carcinoma + squamous-cell papilloma, dosed 103 weeks, study length 104 weeks): 3660 mg/kg/day
TD50 (rat, strain Fischer 344, males, in feed, site: skin, lesion: squamous-cell papilloma, dosed 103 weeks, study length 104 weeks): 2540 mg/kg/day
